# Source: patent publication US20210275576A1, “MOLECULAR HYDROGEN-CONTAINING COMPOSITION FOR PREVENTION AND/OR IMPROVEMENT OF GENETIC DISORDER” (MiZ Company Limited, priority 2020, published 2021)
# System: patient diagnosed as having Down syndrome
# Conditions: inhalation 1-3 hours per day for one month, hydrogen concentration 4% to 6%
# Source text: A patient diagnosed as having Down syndrome developed mild cognitive impairment and could not go out because of a depressive symptom. Additionally, their skin had wrinkles due to premature aging characteristic to Down syndrome.
structure (smiles),measurement,setting,value
"[HH] [hydrogen, molecular hydrogen]",ability to go out,,could go out
same,motivation to learn,,got motivated to learn
same,skin resilience (premature aging),,became resilient
same,skin wrinkles (premature aging),,became less noticeable
same,depressive symptom,200 ml/min (Jobs-α generator),improved
